Data as given in ChEMBL document CHEMBL1201862, “PubChem BioAssay data set” (2004).
Active and inactive are the calls of the source.

Legend:
Troponin, cardiac muscle = Troponin, cardiac muscle (Homo sapiens, UniProt P19429+P45379+P63316); test: Fluorescence-based biochemical high throughput dose response assay for activators of the calcium sensitivity of cardiac Regulated Thin Filaments (RTF). [Related pubchem assays (depositor defined):AID493008, AID493018, AID504382, AID504383]; format: protein-complex assay
[1] = blockers of bursicon-stimulated LGR2 cAMP reporter – cell-based, HEK293, CRE-luciferase reporter, cherry pick, set 2, dose response (AID 743343); format: functional;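 further: transfected cells were stimulated with diluted bursicon conditioned medium after compound addition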
[2] = A549 cell cytotoxicity, dose response, cytotoxicity control, plate reader, cherry-pick, antagonist series (AID 743412); format: functional, cell-based
[3] = HEK-293T viability loss after treatment – luminescence, T-cell screen hits, cytotoxicity control for TCR NF-kB inhibitor project, dose response (AID 489026); format: functional, cell-based;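 further: cells exposed to compound about 14 hours before the viability readout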
[4] = blockade of melanocortin 4 receptor signaling – cell-based, plate reader, cherry pick, counter-screen for LGR2 antagonist project, dose response (AID 743444); format: functional;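 further: transfected HEK 293 cells stimulated with alpha-MSH peptide; potency of inhibitors of the alpha-MSH evoked signal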
[5] = toxicity toward HepG2 liver cells – cell-based, plate reader, cherry-pick, antagonist series, cytotoxicity control, dose response (AID 743416); format: functional
[6] = molecular target: T1, Heat shock factor protein 1 (Mus musculus, UniProt P38532); test: decrease of HSF1-responsive luciferase luminescence – cell-based, NIH3T3, dose retest, confirmation (AID 2382); format: functional;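 further: NIH3T3 fibroblasts with HSF1-driven luciferase reporter stressed by proteasome inhibitor MG132; luminescence from HSF1-driven luciferase expression after 8 hours of MG132 stress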
T1 sequence (P38532 whole entry): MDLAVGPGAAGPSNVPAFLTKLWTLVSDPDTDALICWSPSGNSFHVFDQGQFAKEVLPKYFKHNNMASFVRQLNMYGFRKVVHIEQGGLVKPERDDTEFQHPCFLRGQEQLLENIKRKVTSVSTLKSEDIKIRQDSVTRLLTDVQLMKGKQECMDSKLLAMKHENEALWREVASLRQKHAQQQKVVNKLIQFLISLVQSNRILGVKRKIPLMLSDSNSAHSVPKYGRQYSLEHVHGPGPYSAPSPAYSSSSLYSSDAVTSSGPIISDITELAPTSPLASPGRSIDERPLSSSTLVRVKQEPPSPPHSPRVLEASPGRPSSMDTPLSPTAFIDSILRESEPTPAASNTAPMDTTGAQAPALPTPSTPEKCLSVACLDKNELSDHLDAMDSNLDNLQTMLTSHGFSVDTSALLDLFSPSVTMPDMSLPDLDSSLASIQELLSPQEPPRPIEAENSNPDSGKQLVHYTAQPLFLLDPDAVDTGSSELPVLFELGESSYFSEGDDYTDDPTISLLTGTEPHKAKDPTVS

[7] = viability loss in HEK293 cells – cell-based, plate reader, cherry-picked samples, cytotoxicity control, dose response (AID 743446); format: functional
[8] = molecular target: E3 ubiquitin-protein ligase Mdm2/Protein Mdm4 (Homo sapiens, UniProt O15151+Q00987); test: disruption of Mdm2/MdmX protein binding – luminescence detection, dose response (AID 504593); format: functional
Mu-type opioid receptor = Mu-type opioid receptor (Homo sapiens, UniProt P35372); test: SAR Analysis of Antagonists of the MOR Receptor using an Image-Based Assay - Set 3. [Related pubchem assays (depositor defined):AID1777, AID1785, AID1786, AID1966, AID2133, AID2136, AID2284, AID2285, AID2420]; format: functional
[9] = molecular target: Delta-type opioid receptor (Homo sapiens, UniProt P41143); test: SAR Analysis of Antagonists of the DOR Receptor using an Image-Based Assay - Set 3. [Related pubchem assays (depositor defined):AID1777, AID1785]; format: functional;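 further: U2OS cells expressing DOR1 and beta-arrestin GFP stimulated with 100 nM SNC80; imaging of GFP-tagged beta-arrestin moving into spots after receptor activation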
Insulin-degrading enzyme = molecular target: T2, Insulin-degrading enzyme (Homo sapiens, UniProt P14735); test: Dose Response: Fluorescence polarization-based cell-based high throughput dose response assay for inhibitors of insulin-degrading enzyme (IDE). [Related pubchem assays: 434962 (Primary screen (IDE inhibitors in singlicate)), 449730 (Counterscreen (Cytotoxicity in triplicate)), 435028 (Confirmation (IDE inhibitors in triplicate)), 434984 (Summary …; format: functional
T2 sequence (P14735 whole entry): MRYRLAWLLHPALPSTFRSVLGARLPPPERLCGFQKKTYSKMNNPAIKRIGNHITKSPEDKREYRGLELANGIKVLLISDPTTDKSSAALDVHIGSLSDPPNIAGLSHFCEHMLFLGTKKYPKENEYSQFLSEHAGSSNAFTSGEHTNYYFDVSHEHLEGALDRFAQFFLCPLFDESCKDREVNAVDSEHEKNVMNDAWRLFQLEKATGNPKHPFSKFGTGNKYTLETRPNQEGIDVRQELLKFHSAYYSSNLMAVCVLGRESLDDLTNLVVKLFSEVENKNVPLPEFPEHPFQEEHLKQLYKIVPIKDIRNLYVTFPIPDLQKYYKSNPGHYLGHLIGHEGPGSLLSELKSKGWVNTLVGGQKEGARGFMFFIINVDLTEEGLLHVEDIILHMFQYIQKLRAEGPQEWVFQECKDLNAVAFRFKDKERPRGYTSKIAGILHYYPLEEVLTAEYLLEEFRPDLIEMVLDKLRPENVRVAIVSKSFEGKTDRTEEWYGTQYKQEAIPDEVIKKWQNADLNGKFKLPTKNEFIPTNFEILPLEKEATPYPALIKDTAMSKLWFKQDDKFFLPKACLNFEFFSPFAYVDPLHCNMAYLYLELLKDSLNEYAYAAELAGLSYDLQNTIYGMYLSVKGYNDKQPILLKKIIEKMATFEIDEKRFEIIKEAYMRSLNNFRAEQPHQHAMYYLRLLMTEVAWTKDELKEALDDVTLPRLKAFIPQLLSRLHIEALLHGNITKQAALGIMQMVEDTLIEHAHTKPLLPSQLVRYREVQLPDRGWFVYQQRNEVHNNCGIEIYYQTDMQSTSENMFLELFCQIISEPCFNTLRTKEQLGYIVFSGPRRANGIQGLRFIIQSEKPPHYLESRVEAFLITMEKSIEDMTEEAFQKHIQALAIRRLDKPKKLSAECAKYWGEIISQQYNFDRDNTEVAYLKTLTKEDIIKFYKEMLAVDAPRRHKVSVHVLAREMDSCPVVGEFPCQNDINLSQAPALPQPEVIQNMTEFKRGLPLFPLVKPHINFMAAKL

[10] = mitochondrial function rescue without frataxin homolog – Friedreich's ataxia, plus single-dose screen, dose response (AID 1465); format: functional;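 further: yeast depleted of Yfh1p frataxin homolog grown on glycerol needing respiration; WST-1 tetrazolium dye reduction as measure of cellular dehydrogenase metabolic activity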
[11] = Counterscreen for IDE inhibitors: Luminescence-based cell-based high throughput dose response assay to identify compounds that are cytotoxic to HEK cells. [Related pubchem assays: 434962 (Primary screen (IDE inhibitors in singlicate)), 449730 (Counterscreen (Cytotoxicity in triplicate)), 435028 (Confirmation (IDE inhibitors in triplicate)) …; format: functional; conditions: HEK293
Streptococcus = test: GAS UMAA2166 growth inhibition – luminescence, BacTiterGlo, counter-screen for streptokinase expression inhibitor project, dose response (AID 1915); format: functional, organism-based;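 further: potency for reduction of bacterial viability or growth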
[12] = tested on: Streptococcus sp. 'group A'; test: Streptococcus pyogenes SK(-)GAS viability under kanamycin – luminescence, BacTiterGlo, confirmation, counter-screen for streptokinase expression inhibitor project, dose response (AID 1900); format: functional, organism-based
Streptokinase A = molecular target: T3, Streptokinase A (Streptococcus pyogenes serotype M1, UniProt P10520); test: viability-normalized secreted streptokinase activity reduction – plasminogen activation absorbance, OD405, dose response (AID 1914); format: functional, Streptococcus pyogenes M1 GAS;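 further: secreted streptokinase activity via plasminogen activation per viability signal from cell pellet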
T3 sequence (P10520 whole entry): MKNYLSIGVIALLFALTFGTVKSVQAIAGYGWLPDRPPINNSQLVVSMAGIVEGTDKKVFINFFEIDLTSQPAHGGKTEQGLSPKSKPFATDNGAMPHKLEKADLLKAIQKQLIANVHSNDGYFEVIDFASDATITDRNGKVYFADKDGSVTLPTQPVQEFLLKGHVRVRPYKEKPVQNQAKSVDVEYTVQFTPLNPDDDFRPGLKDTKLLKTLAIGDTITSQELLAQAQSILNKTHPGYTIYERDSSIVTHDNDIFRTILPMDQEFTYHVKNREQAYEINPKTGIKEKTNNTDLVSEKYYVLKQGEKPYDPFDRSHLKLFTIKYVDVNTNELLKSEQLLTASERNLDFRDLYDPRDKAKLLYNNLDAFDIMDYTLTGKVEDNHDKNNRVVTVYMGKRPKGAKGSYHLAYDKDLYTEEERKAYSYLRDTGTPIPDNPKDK

Sequence of E3 ubiquitin-protein ligase Mdm2/Protein Mdm4 (Q00987 whole entry): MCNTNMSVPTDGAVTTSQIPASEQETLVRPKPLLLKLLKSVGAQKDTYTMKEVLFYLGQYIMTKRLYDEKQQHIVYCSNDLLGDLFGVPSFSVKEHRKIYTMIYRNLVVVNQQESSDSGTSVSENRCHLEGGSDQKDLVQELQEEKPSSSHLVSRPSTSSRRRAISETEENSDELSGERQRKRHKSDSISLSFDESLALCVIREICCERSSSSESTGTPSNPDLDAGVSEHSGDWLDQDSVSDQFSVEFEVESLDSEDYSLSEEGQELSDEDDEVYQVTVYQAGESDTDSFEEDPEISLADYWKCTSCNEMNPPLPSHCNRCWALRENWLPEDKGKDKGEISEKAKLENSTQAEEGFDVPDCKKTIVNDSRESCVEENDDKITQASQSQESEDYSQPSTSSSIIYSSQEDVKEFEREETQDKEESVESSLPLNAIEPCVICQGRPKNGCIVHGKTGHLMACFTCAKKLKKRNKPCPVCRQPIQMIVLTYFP
Sequence of E3 ubiquitin-protein ligase Mdm2/Protein Mdm4 (O15151 whole entry): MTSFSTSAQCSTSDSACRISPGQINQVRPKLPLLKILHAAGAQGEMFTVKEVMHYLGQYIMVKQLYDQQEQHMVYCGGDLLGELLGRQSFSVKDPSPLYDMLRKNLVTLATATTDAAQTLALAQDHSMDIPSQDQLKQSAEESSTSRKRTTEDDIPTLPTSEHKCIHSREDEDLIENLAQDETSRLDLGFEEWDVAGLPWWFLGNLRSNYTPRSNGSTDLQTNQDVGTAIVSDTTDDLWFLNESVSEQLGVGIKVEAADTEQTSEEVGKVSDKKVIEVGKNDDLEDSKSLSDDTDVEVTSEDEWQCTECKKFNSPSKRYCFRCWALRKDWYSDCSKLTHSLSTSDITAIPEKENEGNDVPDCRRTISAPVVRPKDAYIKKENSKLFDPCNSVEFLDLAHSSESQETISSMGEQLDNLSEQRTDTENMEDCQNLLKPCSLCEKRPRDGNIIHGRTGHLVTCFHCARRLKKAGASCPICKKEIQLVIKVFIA
Sequence of Delta-type opioid receptor (P41143 whole entry): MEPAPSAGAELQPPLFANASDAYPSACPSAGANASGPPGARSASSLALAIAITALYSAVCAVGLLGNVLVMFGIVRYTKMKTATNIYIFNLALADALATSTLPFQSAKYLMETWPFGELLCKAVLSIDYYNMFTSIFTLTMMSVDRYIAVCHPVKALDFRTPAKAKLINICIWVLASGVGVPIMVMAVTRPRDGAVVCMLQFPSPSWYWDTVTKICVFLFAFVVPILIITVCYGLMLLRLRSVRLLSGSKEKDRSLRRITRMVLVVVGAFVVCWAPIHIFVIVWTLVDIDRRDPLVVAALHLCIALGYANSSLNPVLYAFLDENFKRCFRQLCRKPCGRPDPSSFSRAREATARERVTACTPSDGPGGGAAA
Sequence of Mu-type opioid receptor (P35372 whole entry): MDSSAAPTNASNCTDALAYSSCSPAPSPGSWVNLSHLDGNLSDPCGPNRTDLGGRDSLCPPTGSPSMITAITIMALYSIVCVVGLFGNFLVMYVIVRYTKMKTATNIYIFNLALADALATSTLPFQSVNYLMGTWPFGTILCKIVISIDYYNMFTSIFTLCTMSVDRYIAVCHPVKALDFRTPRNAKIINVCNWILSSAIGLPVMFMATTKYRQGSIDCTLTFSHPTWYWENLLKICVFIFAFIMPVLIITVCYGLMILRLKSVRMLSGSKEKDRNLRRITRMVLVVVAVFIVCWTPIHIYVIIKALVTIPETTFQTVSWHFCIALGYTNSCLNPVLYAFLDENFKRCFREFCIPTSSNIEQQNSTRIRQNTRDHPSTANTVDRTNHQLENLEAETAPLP

With `CCC(/C=C1\Oc2ccc(OC)cc2N1C)=C\c1sc2ccccc2[n+]1CCCS(=O)(=O)[O-]` the EC50 (Troponin, cardiac muscle) was 0.853 µM (active).

With `O=c1oc2ccccc2cc1-c1cn(-c2ccccc2)c(S)n1` the AC50 [1] was 316 nM (active), the AC50 [2] was 8.78 µM (active) and the IC50 [3] was > 80 µM (inactive). The AC50 [4] was 259 nM (active), the AC50 [5] was 19.4 µM (active) and the EC50 [6] was < 160 nM (active). For the same compound, the AC50 [7] was 19.4 µM (active) and the IC50 [8] was 0.00374 µM (active).

For `Cc1ccc(S(=O)(=O)NCc2ccc(C(=O)NCCN(Cc3ccc(Br)cc3)C(C)C)cc2)cc1`, the IC50 (Mu-type opioid receptor) was > 32 µM (inactive) and the IC50 [9] was > 32 µM (inactive).

In the case of `N#C/C(=C\c1ccc(N2CCOCC2)o1)C(=O)NC1CCCCC1`, the EC50 (Troponin, cardiac muscle) was 6.89 µM (active), the IC50 (Insulin-degrading enzyme) was 8.05 µM (active) and the EC50 [10] was > 100 µM (active). The IC50 [11] was 31.8 µM (not active).

For `C/C(=N\Nc1cc(C)nc(-c2ccccc2O)n1)c1ccccc1O`, the EC50 (Streptococcus) was > 150 µM (not active), the EC50 [12] was 4.57 µM (active) and the EC50 (Streptokinase A) was 14 µM (active). For the same compound, the IC50 [8] was 6.71 µM (active).
